We go through eleven molecules from ChEMBL document CHEMBL1201862, “PubChem BioAssay data set” (2004).

Holding throughout (experiment): inhibition of tumour cell growth, NCI panel, 48 h
Assay [1] relates to CCRF-CEM.
In assay [2] the test system is M14.
Assay [3] deals with SK-MEL-2.
Assay [4] has as its system U-251.
In assay [5] the test system is TK-10.
Assay [6] deals with MCF7.
Assay [7] has as its system HL-60.
Assay [8] has as its system SF-295.
The test system of assay [9] is 786-0.
Assay [10] deals with SW-620.
Assay [11] deals with SNB-19.
The subject of assay [12] is CAKI-1.
Assay [13] deals with MDA-MB-231.
In assay [14] the test system is SK-MEL-5.
The test system of assay [15] is RPMI-8226.
The test system of assay [16] is NCI/ADR-RES.
Assay [17] deals with UO-31.
Assay [18] relates to SNB-75.
Assay [19] concerns RXF 393.
For assay [20], the system named is SR.

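Interpolation was linear, between the two tested concentrations surrounding the appropriate level; five concentrations were tested over 48 hours in 96-well plates. Abbreviation: GI50, concentration required for 50% inhibition of growth.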 Active and inactive are the calls of the source. Cut-off read from the data, not from the text of the source: active = GI50 up to about 1.1 µM and inactive = higher.

As to `CNc1ncnc2c1cnn2Cc1cn(COCC(O)CO)nn1` (stereo unspecified), the GI50 in assay [1], in [2], in assay [3], in [4], in assay [5] and in [6] was > 100 µM (inactive) each time. For the same molecule, the GI50 in [7], in assay [8], in [9], in assay [10], in assay [11] and in assay [12] was > 100 µM (inactive) in each case. Further, the GI50 in [13], in assay [14], in [15], in assay [16] and in assay [17] was > 100 µM (inactive) throughout.

Regarding `CN(O)C(=O)CCC(NC(=O)CCC(N)C(=O)O)C(=O)NCC(=O)O` (stereo unspecified), the GI50 in [1], in assay [2], in assay [3], in assay [18], in assay [4] and in assay [5] was > 100 µM (inactive) in each case. The GI50 in assay [6], in assay [7], in assay [8], in [9], in assay [10] and in [11] was > 100 µM (inactive) throughout. The GI50 in assay [12], in [19], in [13], in assay [14], in [15] and in assay [16] was > 100 µM (inactive) each time. Also, the GI50 in assay [17] was > 100 µM (inactive).

For `COC(OC)[C@@H]1OC[C@H](n2cnc3c(N)ncnc32)[C@H]1O`, the GI50 in assay [20], in assay [1], in assay [2], in [3], in assay [18] and in [4] was > 100 µM (inactive) throughout. In addition, the GI50 in assay [5] is > 100 µM (inactive); in [8], > 100 µM (inactive); in [9] it was > 100 µM (inactive); in assay [10], > 100 µM (inactive); in assay [11], 5.06 µM (inactive); in assay [12], > 100 µM (inactive). In addition, the GI50 in assay [19], in assay [13], in assay [14], in assay [15], in [16] and in assay [17] was > 100 µM (inactive) in each case.

Regarding `O=[N+]([O-])/C(C(Cl)=C(Cl)Cl)=C(\Nc1ccccc1)n1nnc2ccccc21`, the GI50 in assay [1] is 21.4 µM (inactive); in [2] it was 65 µM (inactive); in assay [3], 27.2 µM (inactive); in assay [18] it was > 100 µM (inactive); in assay [4] it was 29.9 µM (inactive); in assay [6] it was 55.8 µM (inactive). For the same molecule, the GI50 in [8] is 44.7 µM (inactive); in assay [9], 48.9 µM (inactive); in assay [10] it was 32.2 µM (inactive); in assay [11], 41.7 µM (inactive); in assay [12], > 100 µM (inactive); in assay [13] it was 27 µM (inactive). For the same molecule, the GI50 is 21.6 µM (inactive) in assay [15], 41.6 µM (inactive) in [16] and 21.9 µM (inactive) in assay [17].

For the molecule `CC(C)(C)OC(=O)C1=C(N)N(Cc2ccccc2)C2(C)C=CC(=O)C=C12` (stereo unspecified), the GI50 is 2.58 µM (inactive) in assay [1]; 2.98 µM (inactive) in assay [2]; 11.7 µM (inactive) in assay [3]; 13 µM (inactive) in assay [18]; 8.73 µM (inactive) in [4]; 3.44 µM (inactive) in assay [5]. The GI50 is 2.5 µM (inactive) in assay [6]; 1.88 µM (inactive) in assay [7]; 14.9 µM (inactive) in [8]; 3.83 µM (inactive) in [9]; 2.37 µM (inactive) in assay [10]; 16.1 µM (inactive) in [11]. In addition, the GI50 in assay [12] was 1.83 µM (inactive); in assay [19] it was 2.44 µM (inactive); in [13], 6.98 µM (inactive); in assay [14], 4.31 µM (inactive); in assay [15] it was 2.6 µM (inactive); in [16] it was 23.9 µM (inactive). In assay [17], the GI50 was 3.52 µM (inactive).

In the case of `N=C(N)NS(=O)(=O)c1ccc(NC(=O)c2c3ccccc3nc3ccccc23)cc1`, the GI50 in assay [20], in assay [1], in assay [2], in assay [3], in assay [18] and in assay [4] was > 100 µM (inactive) in each case. Further, the GI50 in [5] is > 100 µM (inactive); in assay [6], > 100 µM (inactive); in assay [8], > 100 µM (inactive); in [9], > 100 µM (inactive); in assay [10], > 100 µM (inactive); in assay [11], 86.5 µM (inactive). Further, the GI50 in assay [12], in assay [13], in assay [14], in [15], in assay [16] and in [17] was > 100 µM (inactive) each time.

As for `CCCC[C@@H]1CCN2C[C@@H](O)[C@@H](O)[C@H]2[C@@H]1O`, the GI50 in [1], in assay [2], in [3], in assay [18], in assay [4] and in assay [5] was > 100 µM (inactive) in each case. Moreover, the GI50 in [6], in assay [7], in [8], in [9], in assay [10] and in assay [11] was > 100 µM (inactive) each time. Also, the GI50 in assay [12], in [13], in [14], in assay [15], in assay [16] and in assay [17] was > 100 µM (inactive) each time.

As to `Brc1ccc(-c2[nH]c3ccccc3c2/N=N\c2ccccc2)cc1`, the GI50 in assay [20] was 15.3 µM (inactive); in assay [1], > 10 µM (inactive); in [2], 17.5 µM (inactive); in assay [3] it was 20.5 µM (inactive); in assay [18] it was 19.5 µM (inactive); in assay [4] it was 17.6 µM (inactive). The GI50 in assay [5] is 21.1 µM (inactive); in [6], 16.1 µM (inactive); in [7], 26.8 µM (inactive); in assay [8] it was 18.8 µM (inactive); in [9], 18.2 µM (inactive); in [10], 17.5 µM (inactive). The GI50 is 20.9 µM (inactive) in [11]; 14.7 µM (inactive) in assay [12]; 16.6 µM (inactive) in [19]; 19.1 µM (inactive) in assay [13]; 18.3 µM (inactive) in assay [14]; 21.7 µM (inactive) in assay [15]. For the same molecule, in assay [17], the GI50 was 16 µM (inactive).

Consider `COc1ccc2[nH]c3c(c2c1)CCc1ccccc1-3`, for which the GI50 in [20] is 84.9 µM (inactive); in assay [1], > 100 µM (inactive); in [2] it was > 100 µM (inactive); in assay [3], > 100 µM (inactive); in assay [18] it was 26.1 µM (inactive); in assay [4], 30.3 µM (inactive). Moreover, the GI50 in [5] was > 100 µM (inactive); in assay [6] it was 79.3 µM (inactive); in assay [8] it was 32.8 µM (inactive); in [9], 50.7 µM (inactive); in assay [10], > 100 µM (inactive); in assay [11] it was 81.3 µM (inactive). For the same molecule, the GI50 in assay [12] is > 100 µM (inactive); in [13] it was 20.2 µM (inactive); in assay [14], > 100 µM (inactive); in [16], 40.4 µM (inactive); in [17] it was 70.1 µM (inactive).

Turning to `c1ccc2c(c1)CCc1c-2n(CCN2CCOCC2)c2ccccc12`, the GI50 in assay [20] is 15 µM (inactive); in assay [1], 21.2 µM (inactive); in assay [2], 44 µM (inactive); in [3], 11.8 µM (inactive); in assay [4], > 100 µM (inactive); in assay [5], > 100 µM (inactive). For the same molecule, the GI50 in assay [6] was > 100 µM (inactive); in assay [8] it was 28.3 µM (inactive); in assay [9] it was > 100 µM (inactive); in [10], > 100 µM (inactive); in [11] it was > 100 µM (inactive); in assay [12], 22.1 µM (inactive). In addition, the GI50 in assay [13] was > 100 µM (inactive); in assay [14] it was 18.8 µM (inactive); in [15] it was 35.2 µM (inactive); in assay [16] it was > 100 µM (inactive); in assay [17], > 100 µM (inactive).

For `COc1ccc2c[n+](C)c3c4cc(OC)c(OC)cc4ccc3c2c1`, the GI50 was 2.87 µM (inactive) in assay [20]; 3.37 µM (inactive) in assay [1]; 15.7 µM (inactive) in [2]; 10.9 µM (inactive) in assay [3]; 2.47 µM (inactive) in assay [18]; 1.49 µM (inactive) in assay [4]. Also, the GI50 is 17.8 µM (inactive) in assay [5]; 8.07 µM (inactive) in [7]; 5.13 µM (inactive) in assay [8]; 2.39 µM (inactive) in assay [9]; 2.23 µM (inactive) in [10]; 2.52 µM (inactive) in assay [11]. Besides, the GI50 was 42.3 µM (inactive) in [12]; 15.6 µM (inactive) in assay [19]; 0.944 µM (active) in assay [13]; 14.7 µM (inactive) in assay [14]; 2.96 µM (inactive) in [15]; > 100 µM (inactive) in assay [16]. The GI50 in [17] was 44 µM (inactive).
